Results from ChEMBL document CHEMBL6153029, “Next-generation cancer therapeutics: PROTACs and the role of heterocyclic warheads in targeting resistance” (Eur J Med Chem, 2025).
One block for each molecule: values may come before it.

Experiments:
[1] = target: Mitogen-activated protein kinase kinase kinase kinase 1 (Homo sapiens, UniProt Q92918); experiment: Inhibition of HPK1 (unknown origin)
U-87 MG = experiment: Antiproliferative activity against human U87 cells; assay type: functional, cell-based, U-87MG ATCC
MCF7 [2] = experiment: Antiproliferative activity against human MCF7 cells assessed as reduction in cell viability incubated for 48 hrs by MTT assay; assay type: functional, cell-based; details: MCF7, 48 h
MCF7 [3] = experiment: Antiproliferative activity against human MCF7 cells assessed as reduction in cell viability at 25 uM incubated for 72 hrs by resazurin based assay relative to control; assay type: functional
[4] = target: von Hippel-Lindau disease tumor suppressor/Platelet-derived growth factor receptor beta (Homo sapiens, UniProt P09619+P40337); experiment: PROTAC activity at VHL/PDGFRbeta in human U87 cells assessed as induction of protein degradation by Western blot analysis; assay type: cell-based
[5] = PROTAC activity at VHL/human p38alpha in MDA-MB-231 cells assessed as p38alpha degradation; assay type: cell-based
[6] = target: T1, Bromodomain-containing protein 4 (Homo sapiens, UniProt O60885); experiment: Inhibition of BRD4 (unknown origin) at 0.01 umol/L relative to control; details: dose 0.01 µmol/L
THP-1 = experiment: Antiproliferative activity against human THP-1 cells; assay type: functional, cell-based
HL-60 = experiment: Antiproliferative activity against human HL-60 cells; assay type: functional, cell-based
[7] = target: T1, Bromodomain-containing protein 4; experiment: Inhibition of BRD4 (unknown origin) at 1 micromol/L relative to control; details: dose 1.0 µmol/L
[8] = target: T2, Protein cereblon/Bromodomain-containing protein 4 (Homo sapiens, UniProt O60885+Q96SW2); experiment: PROTAC activity at CRBN/BRD4 in human MV4-11 cells assessed as induction of degradation of BRD4 measured after 24 hrs by Western blot analysis; assay type: cell-based
[9] = target: T2, Protein cereblon/Bromodomain-containing protein 4; experiment: PROTAC activity at CRBN/BRD4 in human MV4-11 cells assessed as induction of degradation of BRD4 by measuring maximal degradation at 10 uM incubated after 24 hrs by Western blot analysis relative to control; assay type: cell-based
MV4-11 = experiment: Antiproliferative activity against human MV4-11 cells; assay type: functional, cell-based
[10] = target: Protein cereblon/Tyrosine-protein kinase BTK (Homo sapiens, UniProt Q06187+Q96SW2); experiment: PROTAC activity at BTK/CRBN in human MINO cells assessed as BTK protein degradation at 20 nM measured after 2 hrs by Western blotting analysis; assay type: cell-based
[11] = target: Protein cereblon/Mitogen-activated protein kinase kinase kinase kinase 1 (Homo sapiens, UniProt Q92918+Q96SW2); experiment: PROTAC activity at CRBN/HPK1 in human Jurkat cells assessed as degradation of HPK1 protein by Western blotting analysis; assay type: cell-based
[12] = target: T3, Protein cereblon/Mitogen-activated protein kinase 3/Mitogen-activated protein kinase 1 (Homo sapiens, UniProt P27361+P28482+Q96SW2); experiment: PROTAC activity at CRBN/ERK1/2 in human Calu-6 cells assessed as induction of ERK1/2 degradation incubated for 48 hrs by Western blot analysis; assay type: cell-based
HCT-116 = experiment: Antiproliferative activity against human HCT-116 cells assessed as reduction in cell viability incubated for 72 hrs by CCK-8 assay; assay type: functional, cell-based; details: HCT-116, 72 h
Calu-6 = experiment: Antiproliferative activity against human Calu-6 cells assessed as reduction in cell viability incubated for 72 hrs by CCK-8 assay; assay type: functional, cell-based; details: Calu-6, 72 h
[13] = target: T3, Protein cereblon/Mitogen-activated protein kinase 3/Mitogen-activated protein kinase 1; experiment: PROTAC activity at CRBN/ERK1/2 in human HCT-116 cells assessed as induction of ERK1/2 degradation incubated for 48 hrs by Western blot analysis; assay type: cell-based
A-375 = experiment: Antiproliferative activity against human A-375 cells assessed as reduction in cell viability incubated for 72 hrs by CCK-8 assay; assay type: functional, cell-based; details: A-375, 72 h

Mitogen-activated protein kinase kinase kinase kinase 1, sequence (Q92918 whole entry): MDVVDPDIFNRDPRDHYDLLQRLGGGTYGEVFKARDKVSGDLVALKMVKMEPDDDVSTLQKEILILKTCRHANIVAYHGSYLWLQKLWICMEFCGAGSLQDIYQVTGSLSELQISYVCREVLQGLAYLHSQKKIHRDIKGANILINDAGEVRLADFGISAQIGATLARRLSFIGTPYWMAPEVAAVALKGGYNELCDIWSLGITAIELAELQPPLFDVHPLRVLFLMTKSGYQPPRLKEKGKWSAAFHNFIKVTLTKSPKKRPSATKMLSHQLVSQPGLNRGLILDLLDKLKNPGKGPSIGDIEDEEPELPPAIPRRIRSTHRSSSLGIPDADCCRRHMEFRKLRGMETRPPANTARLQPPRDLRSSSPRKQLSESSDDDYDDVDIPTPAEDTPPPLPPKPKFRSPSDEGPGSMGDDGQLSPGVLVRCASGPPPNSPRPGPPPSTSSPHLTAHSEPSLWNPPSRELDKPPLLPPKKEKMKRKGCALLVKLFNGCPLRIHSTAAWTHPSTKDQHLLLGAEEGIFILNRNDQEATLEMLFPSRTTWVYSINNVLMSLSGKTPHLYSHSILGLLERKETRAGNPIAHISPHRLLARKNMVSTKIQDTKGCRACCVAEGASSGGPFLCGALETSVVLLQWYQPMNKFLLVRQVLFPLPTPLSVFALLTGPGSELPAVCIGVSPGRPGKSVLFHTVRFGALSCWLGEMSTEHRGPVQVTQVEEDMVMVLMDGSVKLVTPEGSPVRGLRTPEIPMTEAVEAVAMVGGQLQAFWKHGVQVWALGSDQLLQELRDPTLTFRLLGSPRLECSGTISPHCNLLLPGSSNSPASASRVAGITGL
T2 sequence (Q96SW2 whole entry, looked up, other chains not shown): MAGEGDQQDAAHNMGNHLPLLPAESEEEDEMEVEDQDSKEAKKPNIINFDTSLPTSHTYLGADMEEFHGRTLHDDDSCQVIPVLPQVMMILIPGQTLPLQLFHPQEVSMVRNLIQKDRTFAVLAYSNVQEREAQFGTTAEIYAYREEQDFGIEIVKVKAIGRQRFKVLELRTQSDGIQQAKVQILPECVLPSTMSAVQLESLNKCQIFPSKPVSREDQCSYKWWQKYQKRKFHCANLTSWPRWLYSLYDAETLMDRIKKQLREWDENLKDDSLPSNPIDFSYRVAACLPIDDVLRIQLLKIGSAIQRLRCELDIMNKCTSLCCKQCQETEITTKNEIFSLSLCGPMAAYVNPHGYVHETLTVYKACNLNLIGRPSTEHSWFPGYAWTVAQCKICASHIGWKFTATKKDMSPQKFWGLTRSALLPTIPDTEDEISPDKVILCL
T3 sequence (P27361 whole entry): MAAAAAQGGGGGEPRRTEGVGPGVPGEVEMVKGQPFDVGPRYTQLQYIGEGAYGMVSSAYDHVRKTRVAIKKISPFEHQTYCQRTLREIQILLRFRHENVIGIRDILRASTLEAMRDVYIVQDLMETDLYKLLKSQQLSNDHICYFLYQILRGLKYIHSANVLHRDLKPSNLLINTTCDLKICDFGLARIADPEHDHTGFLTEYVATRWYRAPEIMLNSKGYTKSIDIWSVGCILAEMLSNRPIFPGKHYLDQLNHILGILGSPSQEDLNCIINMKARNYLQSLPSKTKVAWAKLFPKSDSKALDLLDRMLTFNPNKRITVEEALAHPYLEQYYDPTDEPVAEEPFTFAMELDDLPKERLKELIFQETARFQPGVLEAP
T3 sequence (P28482 whole entry): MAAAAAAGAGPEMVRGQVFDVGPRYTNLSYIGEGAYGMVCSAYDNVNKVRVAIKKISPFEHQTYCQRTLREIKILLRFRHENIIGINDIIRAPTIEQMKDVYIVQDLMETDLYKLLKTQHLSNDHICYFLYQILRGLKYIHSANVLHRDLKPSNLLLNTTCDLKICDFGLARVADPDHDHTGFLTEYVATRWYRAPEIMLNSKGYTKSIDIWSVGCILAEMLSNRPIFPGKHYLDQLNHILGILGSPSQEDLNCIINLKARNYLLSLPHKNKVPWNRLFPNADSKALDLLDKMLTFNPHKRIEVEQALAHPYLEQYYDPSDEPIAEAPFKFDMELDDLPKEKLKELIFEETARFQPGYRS
T3 sequence (Q96SW2 whole entry): as the sequence (Q96SW2 whole entry, looked up, other chains not shown) above
Protein cereblon/Tyrosine-protein kinase BTK, sequence (Q06187 whole entry): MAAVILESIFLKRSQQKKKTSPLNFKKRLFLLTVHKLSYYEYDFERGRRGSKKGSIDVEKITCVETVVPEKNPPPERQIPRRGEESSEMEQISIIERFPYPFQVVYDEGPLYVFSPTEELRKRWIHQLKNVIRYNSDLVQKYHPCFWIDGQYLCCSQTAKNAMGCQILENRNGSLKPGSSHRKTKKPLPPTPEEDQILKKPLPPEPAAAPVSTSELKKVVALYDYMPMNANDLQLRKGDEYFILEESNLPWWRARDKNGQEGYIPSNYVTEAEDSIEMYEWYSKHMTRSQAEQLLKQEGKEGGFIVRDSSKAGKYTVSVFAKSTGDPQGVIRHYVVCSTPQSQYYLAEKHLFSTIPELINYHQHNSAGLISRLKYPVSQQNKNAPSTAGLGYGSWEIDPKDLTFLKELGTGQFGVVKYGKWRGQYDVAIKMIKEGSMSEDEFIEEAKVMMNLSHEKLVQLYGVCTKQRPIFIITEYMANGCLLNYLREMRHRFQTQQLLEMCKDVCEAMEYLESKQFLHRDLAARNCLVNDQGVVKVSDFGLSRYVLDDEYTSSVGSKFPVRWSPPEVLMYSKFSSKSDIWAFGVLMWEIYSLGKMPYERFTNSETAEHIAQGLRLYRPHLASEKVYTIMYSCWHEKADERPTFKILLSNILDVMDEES
Protein cereblon/Tyrosine-protein kinase BTK, sequence (Q96SW2 whole entry): as the sequence (Q96SW2 whole entry, looked up, other chains not shown) above
von Hippel-Lindau disease tumor suppressor/Platelet-derived growth factor receptor beta, sequence (P09619 whole entry): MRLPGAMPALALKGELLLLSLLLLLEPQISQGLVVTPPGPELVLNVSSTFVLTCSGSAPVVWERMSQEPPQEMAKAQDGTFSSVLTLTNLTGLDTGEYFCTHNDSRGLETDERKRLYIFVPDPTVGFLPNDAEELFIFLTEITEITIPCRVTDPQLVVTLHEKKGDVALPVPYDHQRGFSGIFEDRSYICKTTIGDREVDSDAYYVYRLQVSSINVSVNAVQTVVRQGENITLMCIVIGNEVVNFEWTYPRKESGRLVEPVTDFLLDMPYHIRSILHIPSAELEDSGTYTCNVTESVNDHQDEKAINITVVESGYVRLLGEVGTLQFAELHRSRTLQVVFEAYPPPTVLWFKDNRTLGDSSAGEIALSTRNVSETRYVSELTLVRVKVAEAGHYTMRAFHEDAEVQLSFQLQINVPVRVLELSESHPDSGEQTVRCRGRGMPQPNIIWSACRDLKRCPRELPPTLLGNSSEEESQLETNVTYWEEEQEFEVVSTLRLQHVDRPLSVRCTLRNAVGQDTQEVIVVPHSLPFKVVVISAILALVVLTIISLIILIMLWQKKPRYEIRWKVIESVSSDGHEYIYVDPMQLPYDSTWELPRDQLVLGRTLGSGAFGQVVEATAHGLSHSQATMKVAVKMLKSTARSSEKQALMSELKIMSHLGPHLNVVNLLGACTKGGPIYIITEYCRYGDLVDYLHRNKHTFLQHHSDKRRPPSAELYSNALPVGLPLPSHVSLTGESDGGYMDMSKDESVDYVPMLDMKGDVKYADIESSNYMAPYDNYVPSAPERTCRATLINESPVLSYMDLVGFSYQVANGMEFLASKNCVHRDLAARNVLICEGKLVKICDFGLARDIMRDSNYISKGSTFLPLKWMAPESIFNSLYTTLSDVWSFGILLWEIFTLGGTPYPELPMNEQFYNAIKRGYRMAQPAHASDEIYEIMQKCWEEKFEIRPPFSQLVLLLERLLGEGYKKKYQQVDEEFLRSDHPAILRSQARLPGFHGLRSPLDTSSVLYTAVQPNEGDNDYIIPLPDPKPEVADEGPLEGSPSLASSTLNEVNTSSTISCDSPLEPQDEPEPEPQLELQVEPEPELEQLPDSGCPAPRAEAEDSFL
von Hippel-Lindau disease tumor suppressor/Platelet-derived growth factor receptor beta, sequence (P40337 whole entry): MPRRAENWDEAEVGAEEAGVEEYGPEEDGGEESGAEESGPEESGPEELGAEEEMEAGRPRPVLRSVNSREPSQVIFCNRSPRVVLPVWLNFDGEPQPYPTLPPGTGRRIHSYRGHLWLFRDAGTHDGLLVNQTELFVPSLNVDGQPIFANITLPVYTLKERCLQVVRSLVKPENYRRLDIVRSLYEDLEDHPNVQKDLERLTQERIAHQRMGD
Protein cereblon/Mitogen-activated protein kinase kinase kinase kinase 1, sequence (Q92918 whole entry): as the sequence (Q92918 whole entry) above
Protein cereblon/Mitogen-activated protein kinase kinase kinase kinase 1, sequence (Q96SW2 whole entry): as the sequence (Q96SW2 whole entry, looked up, other chains not shown) above

SMILES: COc1ccc(-c2c[nH]c3ccc(-c4ccc(N5CCN(C(=O)CCCCCNc6cccc7c6C(=O)N(C6CCC(=O)NC6=O)C7=O)CC5)cc4)cc23)cc1OC (configuration not stated)
IC50 [1]: 614 nM

SMILES: Nc1nc2cc(-c3nn(Cc4cn(CCCCCC(=O)Nc5cccc6c5C(=O)N(C5CCC(=O)NC5=O)C6=O)nn4)c4ncnc(N)c34)ccc2o1 (configuration not stated)
IC50 (MCF7 [2]): 87 nM
Activity (MCF7 [3]): 90%

SMILES: Cc1cc(-c2cc(NC(=O)CCC(=O)NCCOCCOCCc3ccc4c(c3)C(=O)N(C3CCC(=O)NC3=O)C4=O)ccc2Oc2ccccc2)n2cc[nH]c(=O)c12 (configuration not stated)
inhibition [6]: 61.1%
IC50 (THP-1): 22.9 nM
IC50 (HL-60): 45.6 nM
inhibition [7]: 92.3%
DC50 [8]: 0.75 nM
Emax [9]: 95%
IC50 (MV4-11): 0.4 nM

SMILES: Nc1ncnc2c1c(-c1ccc(Oc3ccccc3)cc1)nn2[C@@H]1CCCN(C(=O)CCCCCNc2ccc3c(c2)C(=O)N(C2CCC(=O)NC2=O)C3)C1 (some centres not stated)
DC50 [10]: 3.8 nM

SMILES: COc1ccc(-c2c[nH]c3ccc(-c4ccc(N5CCN(C(=O)CCOCCNc6cccc7c6C(=O)N(C6CCC(=O)NC6=O)C7=O)CC5)cc4)cc23)cc1OC (configuration not stated)
DC50 [11]: 1.8 nM
IC50 [1]: 140 nM

SMILES: Cc1cccc(CN2C(=O)c3cc(-c4nc(Nc5ccnc(C#CCCN(C)C)c5)ncc4C)cn3C[C@H]2C)n1
DC50 [12]: 85 nM
IC50 (HCT-116): 2100 nM
IC50 (Calu-6): 15900 nM
DC50 [13]: 102 nM
IC50 (A-375): > 30000 nM

More lines, now with the values ahead:

IC50 (U-87 MG): 910 nM
SMILES: Cc1ncsc1-c1ccc(CNC(=O)[C@@H]2C[C@@H](O)CN2C(=O)[C@@H](NC(=O)CCC(=O)Nc2ccc(-c3nncc4c3C3CC4CC3C(=O)NCCCC(=O)n3nc(N)c4c(-c5ccc(NC(=O)Nc6cccc(Cl)c6)cc5)cccc43)cc2)C(C)(C)C)cc1 (some centres not stated)

DC50 [4]: 257 nM
IC50 (U-87 MG): > 100000 nM
SMILES: Cc1cccc(NC(=O)Nc2ccc(-c3cccc4c3c(N)nn4C(=O)CCCNC(=O)C3CC4CC3c3c4cnnc3-c3ccc(NC(=O)CCC(=O)N[C@H](C(=O)N4C[C@H](O)C[C@H]4C(=O)NCc4ccc(-c5scnc5C)cc4)C(C)(C)C)cc3)cc2)c1F (some centres not stated)

DC50 [5]: 11.6 nM
SMILES: Cc1ccc(C(=O)NCCCc2cn(CCCC(=O)NCCCCCC(=O)N[C@H](C(=O)N3C[C@H](O)C[C@H]3C(=O)N[C@@H](C)c3ccc(-c4scnc4C)cc3)C(C)(C)C)nn2)cc1-n1c(C)cc(OCc2ccc(F)cc2F)c(Br)c1=O
